The target of this experiment is human MRGPRD (Homo sapiens, UniProt Q8TDS7). Description: MRGPRD antagonist activity, IP-One HTRF assay in CHO cells stably expressing human MRGPRD (versus 100 μM β-Alanine agonist). It counts as cell-based. On the procedure: Chinese Hamster Ovary (CHO) cells stably expressing human MRGPRD (Eurofins, San Diego CA) were plated in a 384-well plate at 20,000 cells per well in 12 μL of Optimem (Fisher Scientific 11-058-021). Plates were kept in the incubator at 37° C. overnight. Antagonists were solubilized at a concentration of 10 mM in DMSO, and the agonists were solubilized to stock concentrations of either 50 mM in H2O (β-Alanine) or 10 mM in DMSO (all others) and then diluted in assay buffer (final concentrations of 5.7 mM Tris-HCl, 43 mM NaCl, 50 mM LiCl, pH=8). The concentration of DMSO was normalized across the plate. Antagonists were added to the plate using a Tecan D300 Digital Dispenser at nanoliter/picoliter volumes and 2 μL of agonists in assay buffer were added to each well for a final assay volume of 14 μL. Plates were covered and incubated for 1 h at 37° C. and then for 1 h at room temperature. IP-1 standards and HTRF detection reagents were added according to an IP-One—Gq Kit purchased from Cisbio (part number 621PAPEJ) and incubated in the dark for 1 h at room temperature. Assay plates were read on either a Molecular Devices SpectraMax iD5 plate reader or a BMG ClarioStar plate reader. The HTRF ratio was calculated form the raw data and graphed using GraphPad Prism to calculate IC50 values. Data are expressed as average IC50 values and average percent antagonism calculated as a percent of the maximum efficacy response. For these studies, the variability of the data was assessed by determining the standard error of mean (SEM).
Sequence of human MRGPRD (Q8TDS7 whole entry): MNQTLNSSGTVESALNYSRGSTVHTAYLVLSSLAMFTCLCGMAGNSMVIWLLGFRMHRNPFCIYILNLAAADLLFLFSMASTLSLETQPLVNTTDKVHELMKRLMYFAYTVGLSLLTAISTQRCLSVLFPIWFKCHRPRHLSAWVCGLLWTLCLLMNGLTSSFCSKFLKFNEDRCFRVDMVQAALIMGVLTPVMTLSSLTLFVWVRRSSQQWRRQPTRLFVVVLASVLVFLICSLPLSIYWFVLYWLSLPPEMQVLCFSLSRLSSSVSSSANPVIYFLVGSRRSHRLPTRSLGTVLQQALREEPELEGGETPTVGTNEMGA
The activity ranges are denoted as follows: “+++++” denotes antagonist activity<100 nM; “++++” denotes antagonist activity between 100 and 500 nM; “+++” denotes activity between 500 and 1000 nM; “++” denotes activity between 1000 and 3000 nM; and “+” denotes activity>3000 nM.
Background: TR-FRET usually uses a lanthanide donor and a delayed reading to cut background.

Some results are limits rather than exact numbers.

Turning to `Cc1ccc(-n2nnc(C(=O)Nc3ccnc(C)c3)c2C2CC2)cc1` [Compound 1-4, 5-cyclopropyl-N-(2-methylpyridin-4-yl)-1-(p-tolyl)-1H-1,2,3-triazole-4-carboxamide], the half-inhibitory concentration (IC50) (in general, the concentration that gives 50% inhibition) was in the range of 100 to 500 nM. Regarding `Cc1ccc(-n2nnc(C(=O)Nc3cc(F)nc(F)c3)c2C2CC2)cc1` [Compound 1-5], the IC50 was in the range of 500 to 1000 nM. For `Cc1ccc(-n2nnc(C(=O)Nc3cc(C)nc(C)c3)c2C2CC2)cc1` [Compound 1-6], the half-maximal inhibitory concentration (IC50) was in the range of 500 to 1000 nM. Next, `Cc1ccc(-n2nnc(C(=O)Nc3ccnc(F)c3)c2C2CC2)cc1` [Compound 1-7]: 500 to 1000 nM; `Cc1ccc(-n2nnc(C(=O)Nc3ccncc3F)c2C2CC2)cc1` [Compound 1-9]: 1000 to 3000 nM; `Cc1ccc(-n2nnc(C(=O)Nc3ccncc3)c2C(C)C)cc1` [Compound 1-19]: 500 to 1000 nM. Next, `N#Cc1ccc(-n2nnc(C(=O)Nc3ccncc3)c2C2CC2)cc1` [Compound 2-1]: more than 3000 nM. With `Cc1ccc(-n2nnc(C(=O)Nc3ccncc3)c2C2CC2)c(F)c1` [Compound 2-2], the concentration for half-maximal inhibition (IC50) lay in the range of 500 to 1000 nM. As for `O=C(Nc1ccncc1)c1nnn(-c2ccc(-c3ccccc3)cc2)c1C1CC1` [Compound 2-3], the half-maximal inhibitory concentration (IC50) was 500 to 1000 nM.

For the molecule `COc1ccc(-n2nnc(C(=O)Nc3ccncc3)c2C2CC2)cc1` [Compound 2-4, 5-cyclopropyl-1-(4-methoxyphenyl)-N-(pyridin-4-yl)-1H-1,2,3-triazole-4-carboxamide], the half-inhibitory concentration (IC50) was 500 to 1000 nM. The molecule `Cc1ccc(-n2nnc(C(=O)Nc3ccncc3)c2C2CC2)cc1C` [Compound 2-5] had an IC50 of 1000 to 3000 nM. Turning to `COc1cc(-n2nnc(C(=O)Nc3ccncc3)c2C2CC2)ccc1C` [Compound 2-6], the IC50 lay in the range of 1000 to 3000 nM. As to `Cc1ccc(-n2nnc(C(=O)Nc3ccncc3)c2C2CC2)c(Cl)c1` [Compound 2-7], the IC50 lay in the range of 1000 to 3000 nM.

`Cc1ccc(-n2nnc(C(=O)Nc3ccncc3)c2C2CC2)c(C)c1` [Compound 2-8] showed a half-maximal inhibitory concentration (IC50) of 1000 to 3000 nM.

Take `CC(=O)c1cccc(-n2nnc(C(=O)Nc3ccncc3)c2C2CC2)c1` [Compound 2-9]: the IC50 fell in the range of 1000 to 3000 nM. `CC(=O)c1ccc(-n2nnc(C(=O)Nc3ccncc3)c2C2CC2)cc1` [Compound 2-10] showed an IC50 of 1000 to 3000 nM. Molecule `O=C(Nc1ccncc1)c1nnn(-c2ccc(C3CCCC3)cc2)c1C1CC1` [Compound 2-11] returned an IC50 of 1000 to 3000 nM. `Cc1ccc(-n2nnc(C(=O)Nc3ccncc3)c2C2CC2)cc1F` [Compound 2-13] displayed an IC50 of more than 3000 nM. In the case of `Cc1cccc(-n2nnc(C(=O)Nc3ccncc3)c2C2CC2)c1` [Compound 2-14], the IC50 was more than 3000 nM. Molecule `CCc1cccc(-n2nnc(C(=O)Nc3ccncc3)c2C2CC2)c1` [Compound 3-1, 5-cyclopropyl-1-(3-ethylphenyl)-N-(pyridin-4-yl)-1H-1,2,3-triazole-4-carboxamide] showed an IC50 of 500 to 1000 nM. `CCc1ccc(-n2nnc(C(=O)Nc3ccncc3)c2C2CC2)cc1` [Compound 3-2]: the IC50 was 1000 to 3000 nM.

In the case of `CCc1ccccc1-n1nnc(C(=O)Nc2ccncc2)c1C1CC1` [Compound 3-3], the 50% inhibitory concentration (IC50) fell in the range of 1000 to 3000 nM. With `COc1cccc(-n2nnc(C(=O)Nc3ccncc3)c2C2CC2)c1` [Compound 3-4], the concentration for half-maximal inhibition (IC50) lay in the range of 1000 to 3000 nM. `Cc1ccc(-n2nnc(C(=O)Nc3ccncc3)c2C2CCC2)cc1` [Compound 3-5] displayed an IC50 of 500 to 1000 nM.

`Cc1ccc(-n2nnc(C(=O)Nc3ccncc3)c2C2CCCC2)cc1` [Compound 3-6] came in with a 50% inhibitory concentration (IC50) of 1000 to 3000 nM. For the molecule `O=C(Nc1ccncc1)c1nnn(-c2cc3ccccc3o2)c1C1CC1` [Compound 4-1], the IC50 is more than 3000 nM.

For `Cc1ccc(-n2nnc(C(=O)Nc3ccnc(C)c3)c2C2CC2)c(Cl)c1` [Compound 4-2, 1-(2-chloro-4-methylphenyl)-5-cyclopropyl-N-(2-methylpyridin-4-yl)-1H-1,2,3-triazole-4-carboxamide], the IC50 was 100 to 500 nM. The molecule `O=C(Nc1ccncc1)c1nnn(-c2ccccc2C(F)(F)F)c1C1CC1` [Compound 4-3] yielded an IC50 of 1000 to 3000 nM.

On to `Cc1ccc(-n2nnc(C(=O)Nc3ccncc3)c2C2CC2)cc1O` [Compound 4-4], for which the IC50 is 1000 to 3000 nM.

`O=C(Nc1ccncc1)c1nnn(-c2ccc(O)cc2)c1C1CC1` [Compound 4-5] displayed a half-inhibitory concentration (IC50) of 1000 to 3000 nM. Take `Cc1ccc(-n2nnc(C(=O)Nc3ccncc3)c2C2CC2)c(C(F)(F)F)c1` [Compound 4-6]: the 50% inhibitory concentration (IC50) fell in the range of 1000 to 3000 nM. `O=C(Nc1ccncc1)c1nnn(-c2cccc(O)c2)c1C1CC1` [Compound 4-7]: the IC50 was 1000 to 3000 nM. `O=C(Nc1ccncc1)c1nnn(-c2cc3ccccc3s2)c1C1CC1` [Compound 4-8] showed a half-inhibitory concentration (IC50) of 1000 to 3000 nM.

Take `O=C(Nc1ccncc1)c1nnn(C2CCc3ccccc3C2)c1C1CC1` (centres unmarked) [Compound 4-9]: the half-inhibitory concentration (IC50) is 1000 to 3000 nM. `O=C(Nc1ccncc1)c1nnn(-c2csc3ccccc23)c1C1CC1` [Compound 4-10] had an IC50 of 1000 to 3000 nM. Regarding `O=C(Nc1ccncc1)c1nnn(-c2cccc(-c3ccccc3)c2)c1C1CC1` [Compound 4-11], the IC50 lay in the range of 1000 to 3000 nM. For `CC(C)(C)c1c(C(=O)Nc2ccncc2)nnn1-c1ccc(-c2ccccc2)cc1` [Compound 4-12], the IC50 fell in the range of 1000 to 3000 nM. `O=C(Nc1ccncc1)c1nnn(-c2ccc(-c3ccccc3)cc2Cl)c1C1CC1` [Compound 4-13] came in with an IC50 of 500 to 1000 nM.

Take `O=C(Nc1ccncc1)c1nnn(-c2ccc3c(c2)CCC3)c1C1CC1` [Compound 5-1]: the half-maximal inhibitory concentration (IC50) is more than 3000 nM.

As for `O=C(Nc1ccncc1)c1nnn(-c2ncc(-c3ccccc3)s2)c1C1CC1` [Compound 5-2], the half-inhibitory concentration (IC50) is more than 3000 nM.

Take `O=C(Nc1ccncc1)c1nnn(-c2ccc3ccccc3c2)c1C1CC1` [Compound 5-3]: the 50% inhibitory concentration (IC50) is 500 to 1000 nM. For `CCc1cc(-n2nnc(C(=O)Nc3ccncc3)c2C2CC2)ccc1C` [Compound 5-4, 5-cyclopropyl-1-(3-ethyl-4-methylphenyl)-N-(pyridin-4-yl)-1H-1,2,3-triazole-4-carboxamide], the half-inhibitory concentration (IC50) was in the range of 500 to 1000 nM. Next, `COc1cc(C)ccc1-n1nnc(C(=O)Nc2ccncc2)c1C1CC1` [Compound 5-5]: 500 to 1000 nM; `CCc1cc(C)ccc1-n1nnc(C(=O)Nc2ccncc2)c1C1CC1` [Compound 5-6]: 1000 to 3000 nM; `Cc1ccc(-n2nnc(C(=O)Nc3ccncc3)c2C2CC2)cc1-c1ccccc1` [Compound 5-7]: 1000 to 3000 nM. Take `O=C(Nc1ccncc1)c1nnn(C2CCCCC2)c1C1CC1` [Compound 6-1]: the half-maximal inhibitory concentration (IC50) fell in the range of 1000 to 3000 nM.

Turning to `O=C(Nc1ccncc1)c1nnn(-c2cccc3ccccc23)c1C1CC1` [Compound 6-2, 5-cyclopropyl-1-(naphthalen-1-yl)-N-(pyridin-4-yl)-1H-1,2,3-triazole-4-carboxamide], the IC50 lay in the range of 100 to 500 nM. Next, `O=C(Nc1ccncc1)c1nnn(CC(F)(F)F)c1C1CC1` [Compound 6-3]: 500 to 1000 nM; `COCCn1nnc(C(=O)Nc2ccncc2)c1C1CC1` [Compound 6-4]: 1000 to 3000 nM; `O=C(Nc1ccncc1)c1nnn(C2CCCC2)c1C1CC1` [Compound 6-5]: 1000 to 3000 nM. `Cc1nnc(-c2ccc(-n3nnc(C(=O)Nc4ccncc4)c3C3CC3)cc2)o1` [Compound 7-1] gave a concentration for half-maximal inhibition (IC50) of more than 3000 nM. `CN(C)C(=O)c1ccccc1-c1ccc(-n2nnc(C(=O)Nc3ccncc3)c2C2CC2)cc1` [Compound 7-2]: the IC50 was more than 3000 nM. `O=C(Nc1ccncc1)c1nnn(-c2ccc(-c3ncc[nH]3)cc2)c1C1CC1` [Compound 7-3] showed a half-inhibitory concentration (IC50) of more than 3000 nM. The molecule `N#CCc1ccc(-n2nnc(C(=O)Nc3ccncc3)c2C2CC2)cc1` [Compound 7-4] showed a half-maximal inhibitory concentration (IC50) of more than 3000 nM. Molecule `Nc1cc(-c2ccc(-n3nnc(C(=O)Nc4ccncc4)c3C3CC3)cc2)n[nH]1` [Compound 7-5] showed a half-maximal inhibitory concentration (IC50) of more than 3000 nM. Molecule `Cc1ccc(CNC(=O)c2nnn(-c3cccc(-c4ccc(C#N)cc4)c3)c2C2CC2)cn1` [Compound 7-7] showed a 50% inhibitory concentration (IC50) of more than 3000 nM. `CC(=O)c1ccccc1-c1cccc(-n2nnc(C(=O)Nc3ccncc3)c2C2CC2)c1` [Compound 7-8] came in with an IC50 of more than 3000 nM. As for `N#Cc1ccc(-c2cccc(-n3nnc(C(=O)NC4(c5cccnc5)CC4)c3C3CC3)c2)cc1` [Compound 7-9], the figure is more than 3000 nM; as for `O=C(NC1(c2cccnc2)CC1)c1nnn(-c2cccc(-c3cnn(C4CCC4)c3)c2)c1C1CC1` [Compound 7-10], more than 3000 nM. Take `Cc1nn(-c2ccccc2)c(C)c1-c1ccc(-n2nnc(C(=O)Nc3ccncc3)c2C2CC2)cc1` [Compound 7-11]: the IC50 is less than 100 nM. As to `Cc1cc(NC(=O)c2nnn(-c3ccc(-c4c(C)nn(C)c4C)cc3)c2C2CC2)ccn1` [Compound 7-12, 5-cyclopropyl-N-(2-methylpyridin-4-yl)-1-(4-(1,3,5-trimethyl-1H-pyrazol-4-yl)phenyl)-1H-1,2,3-triazole-4-carboxamide], the IC50 is less than 100 nM.

`Cc1cc(NC(=O)c2nnn(-c3ccc(-c4c(C)nn(C)c4F)cc3)c2C2CC2)ccn1` [Compound 7-13] returned a concentration for half-maximal inhibition (IC50) of less than 100 nM.

For the origin of these results see US20260001871A1, “TRIAZOLE DERIVATIVES AS MODULATORS OF MAS-RELATED G-PROTEIN RECEPTOR D” (ESCIENT PHARMACEUTICALS, INC., priority 2022, published 2026).
